Data taken from US7166738B2, “Non-nucleoside reverse transcriptase inhibitors” (Roche Palo Alto LLC, priority 2004, dated 2007).

Q: Which melting point does the source give for CCC(=O)NS(=O)(=O)c1ccc(NC(=O)Cc2ccc(Cl)c(Oc3cc(Cl)cc(C#N)c3)c2F)c(Cl)c1.[Na] here?
A: Its melting point is 155.4 to 157.5 °C.

Q: For Cl.N#Cc1cc(Cl)cc(Oc2c(Cl)ccc(CC(=O)Nc3ccc(S(=O)(=O)NC(=O)CCN)cc3Cl)c2F)c1, which melting point is on record?
A: Its melting point is 199.3 to 199.6 °C.

Q: With COCC(=O)NS(=O)(=O)c1ccc(NC(=O)Cc2ccc(Cl)c(Oc3cc(Cl)cc(C#N)c3)c2F)c(Cl)c1.[Na] as the molecule, how does the melting point read?
A: Its melting point is 151.7 to 152.3 °C.

Q: Which melting point does the source give for N#Cc1cc(Cl)cc(Oc2c(Cl)ccc(CC(=O)Nc3ccc(S(=O)(=O)NC(=O)CO)cc3Cl)c2F)c1.[Na] here?
A: Its melting point is 178 to 179.5 °C.

Q: With Cc1cc(C(=O)CN2CCOCC2)ccc1NC(=O)Cc1ccc(C)c(Oc2cc(Cl)cc(C#N)c2)c1.O=C(O)C(F)(F)F as the molecule, how does the melting point read?
A: The melting point was 110.3 to 110.5 °C.

Q: For COCCC(=O)NS(=O)(=O)c1ccc(NC(=O)Cc2ccc(Cl)c(Oc3cc(Cl)cc(C#N)c3)c2F)c(Cl)c1.[Na], which melting point is on record?
A: The melting point was 133.1 to 140.7 °C.

Q: For CCCCC(=O)NS(=O)(=O)c1ccc(NC(=O)Cc2ccc(Cl)c(Oc3cc(Cl)cc(C#N)c3)c2F)c(Cl)c1.[Na], which melting point is on record?
A: Its melting point is 157.6 to 159.2 °C.

Q: With CC(C)CC(=O)NS(=O)(=O)c1ccc(NC(=O)Cc2ccc(Cl)c(Oc3cc(Cl)cc(C#N)c3)c2F)c(Cl)c1.[Na] as the molecule, how does the melting point read?
A: Its melting point is 159.3 to 163.4 °C.

Q: Which melting point does the source give for CCN(CC)CC(=O)NS(=O)(=O)c1ccc(NC(=O)Cc2ccc(Cl)c(Oc3cc(Cl)cc(C#N)c3)c2F)c(Cl)c1.Cl here?
A: Its melting point is 195.3 to 197.2 °C.

Q: Which melting point does the source give for CC(C)CCC(=O)NS(=O)(=O)c1ccc(NC(=O)Cc2ccc(Cl)c(Oc3cc(Cl)cc(C#N)c3)c2F)c(Cl)c1.[Na] here?
A: The melting point was 195.6 to 197 °C.

Q: With Cl.N#Cc1cc(Cl)cc(Oc2c(Cl)ccc(CC(=O)Nc3ccc(S(=O)(=O)NC(=O)CN4CCOCC4)cc3Cl)c2F)c1 as the molecule, how does the melting point read?
A: The melting point was 223.3 to 225 °C.

Q: With CCC(=O)NS(=O)(=O)c1ccc(NC(=O)Cc2ccc(C)c(Oc3cc(Cl)cc(C#N)c3)c2F)c(Cl)c1.[Na] as the molecule, how does the melting point read?
A: The melting point was 158.8 to 162 °C.

Q: With Cc1cc(S(=O)(=O)NC(=O)[C@@H](N)C(C)C)ccc1NC(=O)Cc1ccc(Cl)c(Oc2cc(Cl)cc(C#N)c2)c1F.Cl as the molecule, how does the melting point read?
A: Its melting point is 169 to 180.3 °C.

Q: Which melting point does the source give for Cc1cc(S(=O)(=O)NC(=O)c2cccnc2)ccc1NC(=O)Cc1ccc(Cl)c(Oc2cc(Cl)cc(C#N)c2)c1F.Cl here?
A: Its melting point is 261.8 to 263.6 °C.

Q: With N#Cc1cc(Cl)cc(Oc2cc(CC(=O)Nc3ccc(S(N)(=O)=O)cc3)ccc2Cl)c1 [Compound I-1, 2-[4-Chloro-3-(3-chloro-5-cyano-phenoxy)-phenyl]-N-(4-sulfamoyl-phenyl)-acetamide] as the molecule, how does the melting point read?
A: The melting point was 210.5 to 214 °C.

Q: For N#Cc1cc(C#N)cc(Oc2cc(CC(=O)Nc3ccc(S(N)(=O)=O)cc3)ccc2Cl)c1 [Compound I-2, 2-[4-Chloro-3-(3,5-dicyano-phenoxy)-phenyl]-N-(4-sulfamoyl-phenyl)-acetamide], which melting point is on record?
A: Its melting point is 218 to 219 °C.

Q: With Cc1cc(OCCCS(N)(=O)=O)ccc1NC(=O)Cc1ccc(Cl)c(Oc2cc(Cl)ccc2Br)c1 [Compound I-3, 2-[3-(2-Bromo-5-chloro-phenoxy)-4-chloro-phenyl]-N-[2-methyl-4-(3-sulfamoyl-propoxy)-phenyl]-acetamide] as the molecule, how does the melting point read?
A: Its melting point is 190.1 to 192.2 °C.

Q: Which melting point does the source give for NS(=O)(=O)c1ccc(NC(=O)Cc2ccc(Cl)c(Oc3cc(Cl)ccc3Br)c2)cc1 [Compound I-4, 2-[3-(2-Bromo-5-chloro-phenoxy)-4-chloro-phenyl]-N-(4-sulfamoyl-phenyl)-acetamide] here?
A: The melting point was 260.1 to 261.9 °C.

Q: For N#Cc1cc(C#N)cc(Oc2c(Cl)ccc(CC(=O)Nc3ccc(S(N)(=O)=O)cc3)c2F)c1 [Compound I-9, 2-[4-Chloro-3-(3,5-dicyano-phenoxy)-2-fluoro-phenyl]-N-(4-sulfamoyl-phenyl)-acetamide], which melting point is on record?
A: Its melting point is 135.7 to 138.1 °C.

Q: For NS(=O)(=O)c1ccc(NC(=O)Cc2ccc(Cl)c(Oc3cc(Cl)cc(Cl)c3Cl)c2F)cc1 [Compound I-10, 2-[4-Chloro-2-fluoro-3-(2,3,5-trichloro-phenoxy)-phenyl]-N-(4-sulfamoyl-phenyl)-acetamide], which melting point is on record?
A: The melting point was 247 to 249 °C.

Q: Which melting point does the source give for Cc1ccc(CC(=O)Nc2ccc(S(N)(=O)=O)cc2)cc1Oc1cc(F)cc(C#N)c1 [Compound I-11, 2-[3-(3-Cyano-5-fluoro-phenoxy)-4-methyl-phenyl]-N-(4-sulfamoyl-phenyl)-acetamide] here?
A: Its melting point is 165.8 to 168.1 °C.

Q: Which melting point does the source give for Cc1ccc(CC(=O)Nc2ccccc2Cl)cc1Oc1cc(F)cc(C#N)c1 [Compound I-12, N-(2-Chloro-phenyl)-2-[3-(3-cyano-5-fluoro-phenoxy)-4-methyl-phenyl]-acetamide] here?
A: Its melting point is 131.1 to 132.2 °C.

Q: Which melting point does the source give for N#Cc1cc(Oc2c(Cl)ccc(CC(=O)Nc3ccc(S(N)(=O)=O)cc3)c2F)cc(C(F)F)c1 [Compound I-13, 2-[4-Chloro-3-(3-cyano-5-difluoromethyl-phenoxy)-2-fluoro-phenyl]-N-(4-sulfamoyl-phenyl)-acetamide] here?
A: The melting point was 214 to 218 °C.

Q: Which melting point does the source give for N#Cc1cc(Oc2c(Cl)ccc(CC(=O)Nc3ccccc3Cl)c2F)cc(C(F)F)c1 [Compound I-14, 2-[4-Chloro-3-(3-cyano-5-difluoromethyl-phenoxy)-2-fluoro-phenyl]-N-(2-chloro-phenyl)-acetamide] here?
A: The melting point was 169.5 to 171 °C.

Q: With CCc1ccc(CC(=O)Nc2ccc(S(N)(=O)=O)cc2)cc1Oc1cc(Cl)ccc1Br [Compound I-15, 2-[3-(2-Bromo-5-chloro-phenoxy)-4-ethyl-phenyl]-N-(4-sulfamoyl-phenyl)-acetamide] as the molecule, how does the melting point read?
A: The melting point was 193.7 to 195.9 °C.

Q: Which melting point does the source give for CCc1ccc(CC(=O)Nc2ccccc2Cl)cc1Oc1cc(Cl)ccc1Br [Compound I-16, 2-[3-(2-Bromo-5-chloro-phenoxy)-4-ethyl-phenyl]-N-(2-chloro-phenyl)-acetamide] here?
A: Its melting point is 154 to 155.5 °C.

Q: Which melting point does the source give for CCc1ccc(CC(=O)Nc2ccc(S(N)(=O)=O)cc2)cc1Oc1cc(Cl)ccc1C#N [Compound I-17, 2-[3-(5-Chloro-2-cyano-phenoxy)-4-ethyl-phenyl]-N-(4-sulfamoyl-phenyl)-acetamide] here?
A: The melting point was 198.1 to 202.6 °C.

Q: For CCc1ccc(CC(=O)Nc2ccccc2Cl)cc1Oc1cc(Cl)ccc1C#N [Compound I-18, 2-[3-(5-Chloro-2-cyano-phenoxy)-4-ethyl-phenyl]-N-(2-chloro-phenyl)-acetamide], which melting point is on record?
A: Its melting point is 168 to 169.9 °C.

Q: For CCc1ccc(CC(=O)Nc2ccc(S(N)(=O)=O)cc2)cc1Oc1cc(Cl)ccc1Cl [Compound I-19, 2-[3-(2,5-Dichloro-phenoxy)-4-ethyl-phenyl]-N-(4-sulfamoyl-phenyl)-acetamide], which melting point is on record?
A: The melting point was 190 to 193.4 °C.

Q: Which melting point does the source give for CCc1ccc(CC(=O)Nc2ccc(S(N)(=O)=O)cc2)cc1Oc1c(Cl)cccc1Cl [Compound I-20, 2-[3-(2,6-Dichloro-phenoxy)-4-ethyl-phenyl]-N-(4-sulfamoyl-phenyl)-acetamide] here?
A: Its melting point is 222.5 to 225 °C.

Q: Which melting point does the source give for CCc1ccc(CC(=O)Nc2ccccc2Cl)cc1Oc1cc(Cl)ccc1Cl [Compound I-21, N-(2-Chloro-phenyl)-2-[3-(2,5-dichloro-phenoxy)-4-ethyl-phenyl]-acetamide] here?
A: The melting point was 146.3 to 147.1 °C.

Q: Which melting point does the source give for CCc1ccc(CC(=O)Nc2ccc(S(N)(=O)=O)cc2)cc1Oc1cc(Cl)cc(Br)c1 [Compound I-22, 2-[3-(3-Bromo-5-chloro-phenoxy)-4-ethyl-phenyl]-N-(4-sulfamoyl-phenyl)-acetamide] here?
A: Its melting point is 216.1 to 221.3 °C.

Q: With CCc1ccc(CC(=O)Nc2ccccc2Cl)cc1Oc1c(Cl)cccc1Cl [Compound I-23, N-(2-Chloro-phenyl)-2-[3-(2,6-dichloro-phenoxy)-4-ethyl-phenyl]-acetamide] as the molecule, how does the melting point read?
A: Its melting point is 107 to 110.5 °C.
